The values that follow come from patent US20250171459A1, “2-METHYL-4',5'-DIHYDROSPIRO[PIPERIDINE-4,7'-THIENO[2,3-C]PYRAN] DERIVATIVES AS INHIBITORS OF APOL1 AND METHODS OF USING SAME” (Vertex Pharmaceuticals Incorporated, priority 2022, published 2025).

The experiment concerns the target T1, APOL1 (Homo sapiens, UniProt O14791).
T1 sequence (O14791 1-398 S342G/I384M): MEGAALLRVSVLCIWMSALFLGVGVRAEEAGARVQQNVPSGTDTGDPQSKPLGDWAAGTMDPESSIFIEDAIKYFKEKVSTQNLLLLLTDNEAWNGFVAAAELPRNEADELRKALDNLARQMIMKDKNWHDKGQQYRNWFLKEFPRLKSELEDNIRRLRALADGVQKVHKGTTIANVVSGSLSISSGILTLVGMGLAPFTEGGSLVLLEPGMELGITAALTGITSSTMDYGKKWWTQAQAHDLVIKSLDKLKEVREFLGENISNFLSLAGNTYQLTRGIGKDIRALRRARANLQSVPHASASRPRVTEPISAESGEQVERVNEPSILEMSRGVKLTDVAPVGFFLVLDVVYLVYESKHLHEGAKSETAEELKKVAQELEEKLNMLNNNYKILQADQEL
The experiment in a line: MultiTox-Fluor Multiplex Cytotoxicity Assay in tet-inducible APOL1 T-REx-HEK293 cells (cell rescue, ratio of dead to live cells). It is filed as cell-based. Conditions: tet-inducible transgenic APOL1 T-REx-HEK293 cell lines, 50 ng/mL tet, 24 hours; read-out: IP50 (i.e., IC50 for cell proliferation). In short, it runs like this: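 T-REx-HEK293 cells with tet-inducible APOL1 were treated with compound (10 μM top, 10-point 3-fold dilution, duplicate) plus 50 ng/mL tetracycline for 24 h at 37° C, in DMEM with 2% tet-free FBS. MultiTox-Fluor protease signals gave a dead/live ratio, normalized to no tet (100% viability) and tet alone (0%).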

Take `CNS(=O)(=O)CCn1cc(CN2CCC3(CC2)OCC(C)(C)c2sc(Cl)cc23)cn1` [Compound 1177, 2-[4-[(2-chloro-7,7-dimethyl-spiro[6H-thieno[3,2-c]pyran-4,4′-piperidine]-1′-yl)methyl]pyrazol-1-yl]-N-methyl-ethanesulfonamide]: the IC50 was below 100 nM.

As to `Cn1cc(CN2CCC3(CC2)OCC(C)(C)c2sc(Cl)cc23)cn1` [Compound 1178, 2-chloro-7,7-dimethyl-1′-[(1-methylpyrazol-4-yl)methyl]spiro[6H-thieno[3,2-c]pyran-4,4′-piperidine]], the IC50 was below 100 nM.

For the molecule `Cn1cc(CN2CCC3(CC2)OCC2(CC2)c2sc(Cl)cc23)cn1` [Compound 1179, 2′-chloro-1″-[(1-methyl-1H-pyrazol-4-yl)methyl]-6′H-dispiro[cyclopropane-1,7′-thieno[3,2-c]pyran-4′,4″-piperidine]], the IC50 is below 100 nM.

Consider `CS(=O)(=O)CCn1cc(CN2CCC3(CC2)OCC(O)c2cc(Cl)sc23)cn1` (stereo not drawn) [Compound 1181, 2-chloro-1′-[[1-(2-methylsulfonylethyl)pyrazol-4-yl]methyl]spiro[4,5-dihydrothieno[2,3-c]pyran-7,4′-piperidine]-4-ol], for which the IC50 was 500 to 1000 nM.

As for `CCc1cc2c(s1)C(CC)COC21CCN(Cc2cn(CCS(C)(=O)=O)nn2)CC1` (stereo not drawn) [Compound 1182, 2,7-diethyl-1′-[[1-(2-methylsulfonylethyl)triazol-4-yl]methyl]spiro[6,7-dihydrothieno[3,2-c]pyran-4,4′-piperidine]], the IC50 lay within 500 to 1000 nM.

On to `CCc1cc2c(s1)CCOC21CCN(Cc2cn(C3CS(=O)(=O)C3)nn2)CC1` [Compound 1183], for which the IC50 fell in the range of 500 to 1000 nM.
